Assay results as given in publication PMC8305076, “Comprehensive Evaluation of Biological Effects of Pentathiepins on Various Human Cancer Cell Lines and Insights into Their Mode of Action” (International Journal of Molecular Sciences, 2021).

Key:
[1] = system: HAP-1, HAP-1.KO.GPx1, A2780 and Siso; set-up: method as in PMID 32311219; key: no impact (0); weak impact (+); strong impact (++); settings: summary grade; first generation compound; cited from earlier work
[2] = system: HAP-1, HAP-1.KO.GPx1, Siso and A2780 cells; set-up: method as in PMID 32311219; key: no impact (0); weak impact (+); strong impact (++); settings: summary grade; first generation compound; cited from earlier work
bovine erythrocyte GPx1 = target: T1, bovine erythrocyte GPx1 (Bos taurus, UniProt P00435); set-up: method as in PMID 32311219; key to GPx1 inhibition: no impact (0); weak impact (+); strong impact (++); settings: cited from earlier work
T1 construct: the isolated enzyme from bovine erythrocytes; purchased Sigma-Aldrich (Taufkirchen, Germany); host or cells: isolated from bovine erythrocytes
T1 sequence (P00435 1-205): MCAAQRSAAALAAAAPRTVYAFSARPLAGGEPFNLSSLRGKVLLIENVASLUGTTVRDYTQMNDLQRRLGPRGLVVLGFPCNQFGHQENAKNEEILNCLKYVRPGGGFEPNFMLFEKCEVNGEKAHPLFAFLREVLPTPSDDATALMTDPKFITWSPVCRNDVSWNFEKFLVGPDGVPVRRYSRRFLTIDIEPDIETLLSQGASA

[3] = system: panel of 14 human cancer cell lines; set-up: method as in PMID 32311219; key: no impact (0); weak impact (+); strong impact (++); settings: summary grade; first generation compound; cited from earlier work
[4] = system: HAP-1, HAP-1.KO.GPx1, A2780, and Siso; set-up: method as in PMID 32311219; key: no impact (0); weak impact (+); strong impact (++); settings: summary grade; first generation compound; cited from earlier work
pBR322 plasmid DNA = system: pBR322 plasmid DNA; set-up: method as in PMID 32311219; key: no impact (0); weak impact (+); strong impact (++); settings: summary grade; first generation compound; cited from earlier work
GR/CAT = system: GR/CAT; set-up: method as in PMID 32311219; key: no impact (0); weak impact (+); strong impact (++); settings: summary grade; first generation compound; cited from earlier work
seven cancer cell lines = system: seven cancer cell lines; set-up: method as in PMID 32311219; key: no impact (0); weak impact (+); strong impact (++); settings: summary grade; first generation compound; cited from earlier work
[5] = system: HAP-1, HAP-1.KO.GPx1, and Siso; set-up: method as in PMID 32311219; key: no impact (0); weak impact (+); strong impact (++); settings: summary grade; first generation compound; cited from earlier work
[6] = system: panel of 14 human cancer cell lines; set-up: method as in PMID 32311219; key: no impact (0); weak impact (+); strong impact (++); settings: summary grade; first generation compound; cited from earlier work; remark: listed apart in the source
HAP-1.KO.GPx1 [7] = assay: alkaline Comet assay; assay type: cell-based, human; settings: 25 µM pentathiepin or 20 µM H2O2, 15 min, 0 °C
Source text: (§1) Next, the potential of the pentathiepins 1–6 to damage nuclear DNA was investigated in the cell lines HAP-1, HAP-1.KO.GPx1, and Siso, with different expression levels of GPx1 and CAT (see Figure 7), by Comet Assay (Figure 12) with representative images in the Supplementary Materials (Figure S48).
(§2) With this assay, the intensity of DNA damage can be assessed on the level of a single cell, in case of the alkaline version detecting both single and double strand breaks as well as alkali-labile sites. The method presented here is an adaptation of the protocol published by Olive and Banath and based on the distinct electrophoretic mobility of damaged and intact genomic DNA. The latter has a low mobility; does thus not migrate in the electric field; and remains in a nucleoid shape after lysis, referred to as the comet head. In contrast, when strand breaks are created, free charged ends emerge and increase the electrophoretic mobility, prompting DNA segments to drift away from the comet head, thereby forming the so-called comet tail. As descriptor of still intact genomic DNA, the percentage of DNA in the comet head was selected. Per condition, 50,000 cells of either Siso, HAP-1, or HAP-1.KO.GPx1 were diluted in 1 mL of PBS and subsequently treated with either a 1% DMF aqueous solution as negative control, 20 µM of H2O2 as positive control, or 25 µM of pentathiepin for 15 min on ice to impair intracellular DNA repair mechanisms. Afterwards, 400 µL of the cell suspension was blended with 1.2 mL of a 1% low melting point agarose solution (40 °C) and smoothly distributed on agarose-precoated glass slides. Polymerization was finished after 3 min at RT, and the slides were horizontally submerged in alkaline lysis buffer (1.2 M NaCl, 0.1% N-lauryl-sarcosinate, 0.1 M Na-EDTA, 0.26 M NaOH) before storing them at 4 °C overnight. The slides were then rinsed three times in rinse/electrophoresis buffer (0.002 M Na-EDTA, 0.03 M NaOH) before electrophoretic separation was performed for 25 min at 0.6 V/cm. A neutralization step by adding distilled water was followed by staining the slides with 250 µL of an aqueous 10 µg/mL PI solution for 20 min. For visualization and image capturing, a DMi8 fluorescent microscope and LASX software (Leica Microsystems, Wetzlar, Germany) were used, and the comets scored with the help of CometScore2.0 (rexhoover.com). Per condition and replicate, at least 100 comets were analyzed to calculate a mean level of damage.

HAP-1 = assay: alkaline Comet assay; assay type: cell-based, human; settings: 25 µM pentathiepin or 20 µM H2O2, 15 min, 0 °C
Source text: as §1, §2

Siso = assay: alkaline Comet assay; assay type: cell-based, human; settings: 25 µM pentathiepin or 20 µM H2O2, 15 min, 0 °C
Source text: as §1, §2

[8] = system: caspase-3 and -7 in A2780; assay: luminescent caspase activity assay; assay type: cell-based, human; settings: pentathiepins IC90, doxorubicin 0.5 µM, 24 h
Source text: (§3) To further corroborate this mode of cell death, we performed a luminescent caspase assay by measuring caspase-3 (cas-3) and caspase-7 (cas-7) activities (Figure 16). Both are executioner caspases that are present as zymogens (35 kDa) and become active after being cleaved (fragment sizes 17 and 19 kDa) by initiator caspases. Activated cas-3 and -7 in turn have several other substrates, including PARP1. In this assay, a precursor with a caspase-specific target sequence was converted into its luminescent form by active caspase-3 or -7, thereby emitting light that can be quantified.
(§4) To study the activation of the effector caspases -3 and -7, we performed a luminescence-based assay according to the manufacturer’s instructions (Caspase-Glo, Promega, Walldorf, Germany). Briefly, 5000 cells were seeded in 0.1 mL per well of a 96-well plate and allowed to adhere overnight. […] Afterwards, the standard protocol was followed, including a 30 min incubation time before measurement of luminescent signals by using the Spectramax i3x (Molecular Devices, Sunnyvale, CA, USA). After subtraction of the background luminescence the positive control and treatment conditions were related to the negative control.

[9] = system: caspase-3 and -7 in HAP-1.KO.GPx1; assay: luminescent caspase activity assay; assay type: cell-based, human; settings: pentathiepins IC90, doxorubicin 0.5 µM, 24 h
Source text: as §3, §4

[10] = system: caspase-3 and -7 in HAP-1; assay: luminescent caspase activity assay; assay type: cell-based, human; settings: pentathiepins IC90, doxorubicin 0.5 µM, 24 h
Source text: as §3, §4

caspase-3 and -7 in Siso = assay: luminescent caspase activity assay; assay type: cell-based, human; settings: pentathiepins IC90, doxorubicin 0.5 µM, 24 h
Source text: as §3, §4

HAP-1.KO.GPx1 [11] = assay: annexin V-FITC/PI apoptosis assay; assay type: cell-based, human; settings: pentathiepins IC90, doxorubicin 0.5 µM, 24 h
Protocol: As reported in our earlier publication, a representative pentathiepin was capable of inducing apoptosis in cancer cell lines. Here, we tested compounds 1–6 for their ability to trigger this particular modality of cell death in a subset of four cell lines: HAP-1, HAP-1.KO.GPx1, A2780, and Siso. A flow cytometric assay was performed, allowing us to discriminate between viable, early, and late apoptotic cells (representative dot plots can be found in Figure S47). FITC-labeled annexin V was used to assess the externalization of phosphatidyl serine as a hallmark of early apoptosis induction. The addition of propidium iodide (PI) enabled the detection of late apoptotic cells as it only permeates porous cell membranes and exerts fluorescence once bound to double-stranded DNA.
The annexin V-FITC/PI assay, which discriminates between viable, early, and late apoptotic cells within a sample population, was performed according to the manufacturer’s instructions (Miltenyi Biotec, Teterow, Germany). Briefly, 125,000 cells were seeded in 2 mL per well of a 6-well plate, allowed to adhere overnight, and subsequently treated with the respective pentathiepin (IC90, see Table S4) diluted in 3 mL of medium. After incubation periods of 6, 24, or 48 h, the cells were harvested, washed with the provided binding buffer, and stained with the annexin V-FITC reagent for 20 min at room temperature (RT) in the dark. After another washing step, the pellet was resuspended, and PI was added immediately before flow cytometric measurement at λEx/Em = 488/525 ± 50 nm for FITC and λEx/Em = 488/655–730 nm for PI with the MACSquant Analyzer 10 (Miltenyi Biotec, Teterow, Germany).

PARP1 in HAP-1.KO.GPx1 = assay: Western blot of cleaved PARP1; assay type: cell-based, human; settings: pentathiepins IC90, doxorubicin 0.5 µM, 24 h
Protocol: (§5) In addition to general flow cytometric and microscopic analyses, Western blotting was performed to detect the apoptosis-relevant protein PARP1 (poly(ADP-ribose) polymerase 1) and its cleavage fragment (Figure 17 and Figures S29–S34). Full-length PARP1 (116 kDa) is involved in DNA repair, and a cleavage by caspases (fragment sizes 24 and 89 kDa) caused by caspase-3 and -7 is a hallmark of late apoptosis.
(§6) All detected specific bands were normalized to the total protein load per lane by the TGX stain-free gel system from Bio-Rad.
(§7) All Western blot analyses were performed with reagents, material, and devices purchased from Bio-Rad (Feldkirchen, Germany) if not stated otherwise. To obtain protein lysates, we seeded cells and treated them as described for the other methods. […] Cells were harvested by trypsinization and centrifugation for 5 min at 500× g. After a washing step with PBS, the cell pellet was resuspended in lysis buffer (Tris 50 mM (pH 7.4), 100 mM NaCl, 100 mM NaF, 5 mM EDTA, 0.2 mM Na3VO4, 0.1% Triton-X, and 1% protease inhibitor cocktail added immediately before use). Lysis was supported by incubating the samples for 10 min in an ultrasonic bath before centrifuging for 10 min at 18,000 × g and 4 °C. Protein quantification was performed via the Bradford method using ROTI®nanoquant reagent (Carl Roth GmbH, Karlsruhe, Germany) and bovine serum albumin as calibration standard. For electrophoretic separation, 15–40 µg of protein was loaded per well of a polyacrylamide gel (Mini- or Midi-Protean® TGX stain-free gel, Bio-Rad, Feldkirchen, Germany), and subsequent blotting was performed with Trans-Blot®Turbo™TransferPack Mini or Midi PVDF membranes from Bio-Rad (Feldkirchen, Germany). The membranes were blocked with a 10% non-fat milk powder solution in Tris-buffered saline (TBS; 2.42 g/L Tris, 8.48 g/L NaCl in water) plus 0.5% Tween-20 (TBST) for 1 h at RT. Incubation with primary antibodies took place over night at 4 °C in a 1:1000 dilution in TBST containing BSA (1%). The secondary antibodies conjugated to horse-radish peroxidase were diluted 1:10,000 in TBST and 1% BSA, and incubated for 4 h at RT. A detection step followed, applying Clarity™Western ECL substrate with subsequent imaging via the INTAS Advanced Fluorescence Imager. Between all incubation steps, the blots were washed three times for 10 min with TBST. The bands were quantified with the ImageLab software and normalized using the total protein quantification of the TGX stain-free gel system from Bio-Rad.

PARP1 in HAP-1 = assay: Western blot of cleaved PARP1; assay type: cell-based, human; settings: pentathiepins IC90, doxorubicin 0.5 µM, 24 h
Protocol: as §5, §6, §7

CCOc1c2c(c3cnc4cc(C)c(C)cc4n13)SSSSS2 [(c)]
Ferroptosis [1]: 0 | Morphological changes [2]: + | GPx1 inhibition (bovine erythrocyte GPx1; summary grade, first generation compound): + | Antiproliferative effect [3]: + | Apoptosis [4]: + | DNA cleavage (pBR322 plasmid DNA): + | GR/CAT inhibition (GR/CAT): 0 | ROS induction (seven cancer cell lines): + | Comet formation [5]: + | Cytotoxicity [6]: +

OO [Compound H2O2, hydrogen peroxide]
intact genomic DNA (Comet head) (HAP-1.KO.GPx1 [7]): 5% | intact genomic DNA (Comet head) (HAP-1): 63% | intact genomic DNA (Comet head) (Siso): about 10%

COc1cccc2c1C(=O)c1c(O)c3c(c(O)c1C2=O)C[C@@](O)(C(=O)CO)C[C@@H]3O[C@H]1C[C@H](N)[C@H](O)[C@H](C)O1 [doxorubicin, reference compound]
caspase-3 and -7 activity vs solvent control [8]: activation of the caspase-3 and -7 was confirmed | caspase-3 and -7 activity vs solvent control [9]: activation of the caspase-3 and -7 was confirmed | caspase-3 and -7 activity vs solvent control [10]: activation of the caspase-3 and -7 was confirmed | caspase-3 and -7 activity vs solvent control (caspase-3 and -7 in Siso): activation of the caspase-3 and -7 was confirmed | early apoptotic cells (HAP-1.KO.GPx1 [11]): about 50% | cleaved PARP1 (PARP1 in HAP-1.KO.GPx1): detected to statistically significant extents | cleaved PARP1 (PARP1 in HAP-1): detected to statistically significant extents

O=C(O)CC(S)C(=O)O (stereo not drawn) [mercaptosuccinic acid]
IC50 (bovine erythrocyte GPx1; GPx1 inhibition): 5.9 µM
